The source of these data is patent publication US20230312556A1, “ARYLAMIDE COMPOUND, PHARMACEUTICAL COMPOSITION COMPRISING SAME, AND PREPARATION METHOD THEREFOR AND USE THEREOF” (SICHUAN KELUN-BIOTECH BIOPHARMACEUTICAL CO., LTD., priority 2020, published 2023).

By IC50 is commonly meant the concentration that gives 50% inhibition. A low value points to higher potency.

Experiment [1] deals with mutant CRAF enzyme (RAF1 Y340D and Y341D) (Homo sapiens (Human), UniProt P04049, Y340D/Y341D). As to the kind of experiment: RAF inhibition assay (TB-PMAP2K1 kit), mutant CRAF. The experiment is classed as biochemical. The settings on record: FLUORESCEIN-MAP2K1 substrate, 60 min reaction.
Sequence of mutant CRAF enzyme (RAF1 Y340D and Y341D) (P04049 whole entry Y340D/Y341D): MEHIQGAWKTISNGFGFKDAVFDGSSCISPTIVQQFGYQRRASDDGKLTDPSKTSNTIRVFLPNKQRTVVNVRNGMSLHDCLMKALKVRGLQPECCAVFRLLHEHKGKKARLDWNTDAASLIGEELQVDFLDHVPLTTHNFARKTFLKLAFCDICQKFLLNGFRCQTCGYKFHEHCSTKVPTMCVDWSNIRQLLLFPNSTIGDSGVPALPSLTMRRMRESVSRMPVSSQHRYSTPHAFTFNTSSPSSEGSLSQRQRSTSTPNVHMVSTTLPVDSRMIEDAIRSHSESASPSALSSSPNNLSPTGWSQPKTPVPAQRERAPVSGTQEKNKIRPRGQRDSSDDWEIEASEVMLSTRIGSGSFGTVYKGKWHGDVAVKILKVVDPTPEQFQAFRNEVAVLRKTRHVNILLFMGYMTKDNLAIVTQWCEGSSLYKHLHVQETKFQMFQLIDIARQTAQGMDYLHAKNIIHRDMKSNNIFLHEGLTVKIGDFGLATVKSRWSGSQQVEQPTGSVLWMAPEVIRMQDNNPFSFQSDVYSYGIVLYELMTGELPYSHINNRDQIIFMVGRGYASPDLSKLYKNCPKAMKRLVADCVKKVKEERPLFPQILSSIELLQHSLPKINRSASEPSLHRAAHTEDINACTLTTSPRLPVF
The target in experiment [2] is mutant BRAF enzyme (BRAF-V600E) (Homo sapiens (Human), UniProt P15056, V600E). As to the kind of experiment: RAF inhibition assay (TB-PMAP2K1 kit), BRAF-V600E. In kind it is biochemical. The note with it: FLUORESCEIN-MAP2K1 substrate, 60 min reaction.
Sequence of mutant BRAF enzyme (BRAF-V600E) (P15056 whole entry V600E): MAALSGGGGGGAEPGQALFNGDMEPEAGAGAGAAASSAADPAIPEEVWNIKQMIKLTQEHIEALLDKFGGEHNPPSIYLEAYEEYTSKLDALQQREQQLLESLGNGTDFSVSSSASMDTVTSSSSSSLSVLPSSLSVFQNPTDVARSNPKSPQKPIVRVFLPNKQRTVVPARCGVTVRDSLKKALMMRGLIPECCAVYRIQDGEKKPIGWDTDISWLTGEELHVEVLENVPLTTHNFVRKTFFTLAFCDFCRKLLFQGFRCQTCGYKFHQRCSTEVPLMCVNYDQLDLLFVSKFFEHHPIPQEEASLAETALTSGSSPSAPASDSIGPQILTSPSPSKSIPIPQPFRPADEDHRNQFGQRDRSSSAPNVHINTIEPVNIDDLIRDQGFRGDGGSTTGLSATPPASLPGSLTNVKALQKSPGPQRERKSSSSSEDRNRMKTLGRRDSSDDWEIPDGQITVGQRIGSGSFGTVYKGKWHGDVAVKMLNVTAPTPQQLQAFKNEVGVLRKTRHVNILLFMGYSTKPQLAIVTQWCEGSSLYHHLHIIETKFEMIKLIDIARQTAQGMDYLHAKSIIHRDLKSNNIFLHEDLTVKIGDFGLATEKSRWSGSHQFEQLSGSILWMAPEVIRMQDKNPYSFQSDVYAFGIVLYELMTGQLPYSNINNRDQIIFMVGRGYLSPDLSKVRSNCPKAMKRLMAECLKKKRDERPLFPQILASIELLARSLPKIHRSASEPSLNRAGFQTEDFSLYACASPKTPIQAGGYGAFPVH

Molecules are shown by their SMILES.

`Cc1ccc2c(Nc3cccc(Cl)c3F)nccc2c1NC(=O)c1cccc2c(N)ncnc12` [Compound 1, 4-amino-N-(1-((3-chloro-2-fluorophenyl)amino)-6-methylisoquinolin-5-yl)quinazoline-8-carboxamide]: the IC50 in experiment [1] came out at 5.4 ± 0.6 nM; in experiment [2], 4.71 ± 2.62 nM.

As for `Cc1ccc2c(Cc3cccc(C(F)(F)F)c3)nccc2c1NC(=O)c1csc2c(N)ncnc12` [Compound 19, 4-amino-N-(6-methyl-1-(3-(trifluoromethyl)benzyl)isoquinolin-5-yl)thieno[3,2-d]pyrimidine-7-carboxamide], the IC50 is 10.3 ± 2.29 nM in experiment [1] and 13.9 ± 3.24 nM in experiment [2].

For `Cc1ccc2c(C(=O)c3cccc(C(F)(F)F)c3)nccc2c1NC(=O)c1csc2c(N)ncnc12` [Compound 22, 4-amino-N-(6-methyl-1-(3-(trifluoromethyl)benzoyl)isoquinolin-5-yl)thieno[3,2-d]pyrimidine-7-carboxamide], the results for the IC50 in experiment [1] and in experiment [2] were 14.5 ± 9.94 nM and 26.8 ± 6.82 nM, respectively.

In the case of `Cc1ccc2c(C(O)c3cccc(C(F)(F)F)c3)nccc2c1NC(=O)c1csc2c(N)ncnc12` (stereo not drawn) [Compound 23, 4-amino-N-(1-(hydroxy(3-(trifluoromethyl)phenyl)methyl)-6-methylisoquinolin-5-yl)thieno[3,2-d]pyrimidine-7-carboxamide], the results for the IC50 in experiment [1] and in experiment [2] were 3.93 ± 1 nM and 13.2 ± 3.17 nM, respectively.

For the molecule `Cc1ccc2c(C(O)c3ccc(Cl)cc3F)nccc2c1NC(=O)c1csc2c(N)ncnc12` (stereo not drawn) [Compound 28, 4-amino-N-(1-((4-chloro-2-fluorophenyl)(hydroxy)methyl)-6-methylisoquinolin-5-yl)thieno[3,2-d]pyrimidine-7-carboxamide], the IC50 was 3.48 ± 0.48 nM in experiment [1] and 4.58 ± 0.72 nM in experiment [2].

Turning to `Cc1ccc2c(C(C)Oc3ccccc3)nccc2c1NC(=O)c1csc2c(N)ncnc12` (stereo not drawn) [Compound 35, 4-amino-N-(6-methyl-1-(1-phenoxyethyl)isoquinolin-5-yl)thieno[3,2-d]pyrimidine-7-carboxamide], the IC50 in experiment [1] is 15.4 ± 1.89 nM; in experiment [2], 50.4 ± 12.6 nM.

With `Cc1ccc2c(Nc3cccc(Cl)c3)nccc2c1NC(=O)c1cccc2c(N)ncnc12` [Compound 38, 4-amino-N-(1-((3-chlorophenyl)amino)-6-methylisoquinolin-5-yl)quinazoline-8-carboxamide], the IC50 came to 10.8 ± 2.02 nM in experiment [1] and 9.5 ± 2.68 nM in experiment [2].

Turning to `Cc1ccc2c(Nc3ccccc3F)nccc2c1NC(=O)c1cccc2c(N)ncnc12` [Compound 39, 4-amino-N-(1-((2-fluorophenyl)amino)-6-methylisoquinolin-5-yl)quinazoline-8-carboxamide], the results for the IC50 in experiment [1] and in experiment [2] were 2.6 ± 0.21 nM and 1.74 ± 0.23 nM, respectively.

Take `Cc1ccc2c(Nc3ccc(Cl)cc3F)nccc2c1NC(=O)c1cccc2c(N)ncnc12` [Compound 41, 4-amino-N-(1-((4-chloro-2-fluorophenyl)amino)-6-methylisoquinolin-5-yl)quinazoline-8-carboxamide]: the results for the IC50 in experiment [1] and in experiment [2] were 25 ± 9.32 nM and 12.7 ± 2.28 nM, respectively.

Turning to `Cc1ccc2c(Nc3cccc(C(F)(F)F)c3)nccc2c1NC(=O)c1cnc2c(N)ncnn12` [Compound 43, 4-amino-N-(6-methyl-1-((3-(trifluoromethyl)phenyl)amino)isoquinolin-5-yl)imidazo[2,1-f][1,2,4]triazine-7-carboxamide], the results for the IC50 in experiment [1] and in experiment [2] were 4.49 ± 0.95 nM and 4.84 ± 0.97 nM, respectively.

`Cc1ccc2c(Nc3cccc(Cl)c3F)nccc2c1NC(=O)c1cc(F)cc2c(N)ncnc12` [Compound 46, 4-amino-N-(1-((3-chloro-2-fluorophenyl)amino)-6-methylisoquinolin-5-yl)-6-fluoroquinazoline-8-carboxamide]: the values for the IC50 in experiment [1] and in experiment [2] were 38.1 ± 21.9 nM and 16.2 ± 5.93 nM, respectively.

`Cc1ccc2c(Nc3ccc(F)c(Cl)c3)nccc2c1NC(=O)c1cnc2c(N)ncnn12` [Compound 58, 4-amino-N-(1-((3-chloro-4-fluorophenyl)amino)-6-methylisoquinolin-5-yl)imidazo[2,1-f][1,2,4]triazine-7-carboxamide]: the IC50 in experiment [1] turned out to be 2.68 ± 0.13 nM; in experiment [2], 4.47 ± 0.6 nM.

`COc1ccc(Nc2nccc3c(NC(=O)c4cccc5c(N)ncnc45)c(C)ccc23)c(F)c1` [Compound 60, 4-amino-N-(1-((2-fluoro-4-methoxyphenyl)amino)-6-methylisoquinolin-5-yl)quinazoline-8-carboxamide]: the IC50 was found to be 3.14 ± 0.09 nM in experiment [1] and 6.31 ± 1.09 nM in experiment [2].

`Cc1ccc2c(Nc3ccc(F)cc3F)nccc2c1NC(=O)c1cccc2c(N)ncnc12` [Compound 67, 4-amino-N-(1-((2,4-difluorophenyl)amino)-6-methylisoquinolin-5-yl)quinazoline-8-carboxamide]: the IC50 in experiment [1] stood at 5.76 ± 1.04 nM; in experiment [2], 8.66 ± 0.95 nM.

Take `Cc1ccc2c(Nc3cc(Cl)ccc3F)nccc2c1NC(=O)c1cccc2c(N)ncnc12` [Compound 73, 4-amino-N-(1-((5-chloro-2-fluorophenyl)amino)-6-methylisoquinolin-5-yl)quinazoline-8-carboxamide]: the IC50 was 8.78 ± 1.48 nM in experiment [1] and 11.9 ± 2.3 nM in experiment [2].

`Cc1ccc2c(Nc3ccc(F)cc3F)nccc2c1NC(=O)c1cc(F)cc2c(N)ncnc12` [Compound 85, 4-amino-N-(1-((2,4-difluorophenyl)amino)-6-methylisoquinolin-5-yl)-6-fluoroquinazoline-8-carboxamide]: the IC50 was 4.43 ± 0.32 nM in experiment [1] and 9.02 ± 0.86 nM in experiment [2].

Regarding `Cc1ccc2c(Nc3cc(S(C)(=O)=O)ccc3F)nccc2c1NC(=O)c1cccc2c(N)ncnc12` [Compound 89, 4-amino-N-(1-((2-fluoro-5-(methylsulfonyl)phenyl)amino)-6-methylisoquinolin-5-yl)quinazoline-8-carboxamide], the IC50 in experiment [1] is 4.26 ± 0.16 nM; in experiment [2], 7.58 ± 0.51 nM.

Turning to `Cc1ccc2c(Nc3cc(F)c(F)cc3F)nccc2c1NC(=O)c1cccc2c(N)ncnc12` [Compound 90, 4-amino-N-(6-methyl-1-((2,4,5-trifluorophenyl)amino)isoquinolin-5-yl)quinazoline-8-carboxamide], the IC50 was 14.2 ± 6.59 nM in experiment [1] and 18.6 ± 2.25 nM in experiment [2].

Take `Nc1ncnc2c(C(=O)Nc3c(F)ccc4c(Nc5cccc(Cl)c5F)nccc34)cccc12` [Compound 92, 4-amino-N-(1-((3-chloro-2-fluorophenyl)amino)-6-fluoroisoquinolin-5-yl)quinazoline-8-carboxamide]: the IC50 in experiment [1] stood at 10.8 ± 4.78 nM; in experiment [2], 5.34 ± 0.75 nM.

Take `Cc1ccc2c(Nc3cccc(Cl)c3F)nccc2c1NC(=O)c1ccc(F)c2c(N)ncnc12` [Compound 93, 4-amino-N-(1-((3-chloro-2-fluorophenyl)amino)-6-methylisoquinolin-5-yl)-5-fluoroquinazoline-8-carboxamide]: the values for the IC50 in experiment [1] and in experiment [2] were 5.73 ± 0.36 nM and 5.03 ± 0.54 nM, respectively.

Take `Cc1ccc2c(Nc3c(F)cc(F)cc3F)nccc2c1NC(=O)c1cccc2c(N)ncnc12` [Compound 94, 4-amino-N-(6-methyl-1-((2,4,6-trifluorophenyl)amino)isoquinolin-5-yl)quinazoline-8-carboxamide]: the IC50 in experiment [1] was 4.24 ± 0.17 nM; in experiment [2] it was 3.46 ± 0.22 nM.
